The record followed here is US7183316B2, “Treatment of HPV caused diseases” (Cornell Research Foundation, Inc., priority 2001, dated 2007).

Assay [1] has as its system HPV16 E7 mRNA. Kind of assay: EGF-mediated induction of HPV16 E7 mRNA in CaSki cells (Northern blot). Particulars: for EGF-mediated induction of HPV16 E7 (Northern blot, mRNA): Background Example 6: EGF 10 nanograms/ml, 100 μM NSAID, 25 μM 15d-PGJ2; for EGF-mediated induction of HPV16 E7 mRNA (Northern blot): Background Example 5: EGF 10 nanograms/ml, 50 or 100 μM sulindac sulfide, 15 μM ciglitazone, 15 μM 15d-PGJ2. The class given is cell-based. The procedure:
Epidermal growth factor at 10 nanograms/ml was added to CaSki cells (3×10^6 in a 10 cm diameter dish) together with 50 μM sulindac sulfide or 100 μM sulindac sulfide or 15 μM ciglitazone or 15 μM 15d-PGJ2.
Northern blot testing was carried out for HPV16 E7 mRNA.
Epidermal growth factor (EGF) at 10 nanograms/ml was incubated with CaSki cells (3×10^6 in a 10 cm diameter dish) and 100 μM ibuprofen, 100 μM piroxicam, 100 μM S-naproxen, 100 μM aspirin, 100 μM sulindac sulfone, 100 μM sulindac sulfide, 100 μM naproxen, 100 μM indomethacin, 100 μM flufenamic acid and for comparison purposes 25 μM 15d-PGJ2.

Assay [2] concerns HPV16 E7 protein. Description: Western blotting for HPV16 E7 protein in CaSki cells. In kind it is cell-based. Particulars: 24 hours incubation, concentration series in μM. Here is the method:
(§1) Ciglitazone was incubated with CaSki cells (prototypic cervical cancer cells known to be infected with HPV16). The number of CaSki cells was 3×10^6 in a 10 cm diameter dish. Incubation were carried out for 24 hours with 0, 1, 5, 10 and 20 μM ciglitazone.
(§2) Western blotting was carried out to determine levels of HPV16 E7 protein. […] Northern blotting was carried out to determine levels of HPV16 E7 mRNA. […] Nuclear run-off testing was carried out to determine level of gene transcription.
(§3) Celebrex™ at concentrations of 0, 0.1, 0.25, 0.5, 1.0, 2.5 and 5.0 μM was incubated with CaSki cell (3.0×10^6 in a 10 cm diameter dish) for 24 hours.
Background: Immunoblotting shows a protein as a band on a membrane.

The test system of assay [3] is HPV16 E6 mRNA. Description: Northern blotting for HPV16 E6 mRNA in CaSki cells. In kind it is cell-based. Particulars: for levels of HPV16 E6 mRNA (Northern blot): CaSki cells, 24 hours incubation, concentration series in μM; for HPV16 E6 mRNA (Northern blot): Background Example 7: CaSki cells, 24 hours, curcumin 5 μM, resveratrol 15 μM, ciglitazone 20 μM, 15d-PGJ2 15 μM. Here is the method:
as §3
Curcumin (5 μM), resveratrol (15 μM), ciglitazone (20 μM) or 15d-PGJ2 (15 μM) were incubated with CaSki cells (3×10^6 in a 10 cm diameter dish) for 24 hours.
Northern blot testing was carried our for HPV16 E6 mRNA.

Assay [4] relates to HPV mediated cutaneous warts. Kind of assay: Topical treatment of patient with HPV mediated cutaneous warts. In kind it is in vivo, human. Particulars: ointment containing 5%, twice a day, three months. From the text:
A child presents to a local dermatologist because of small cutaneous growths on the hand. A diagnosis of HPV mediated cutaneous warts is made. The patient is instructed to apply an ointment containing 5% rosiglitazone to the affected areas twice a day. […] The same results occur with an ointment containing 5% resveratrol instead of the ointment containing rosiglitazone.

For assay [5], the system named is HPV16 E7 mRNA. Description: Northern blotting for HPV16 E7 mRNA in CaSki cells. In kind it is cell-based. The settings on record: 24 hours incubation, concentration series in μM. Here is the method: as §1, §2
NS-398 at concentrations of 0, 10, 20, 40, 60, 100, 250 and 500 μM was incubated with CaSki cells (3×10^6 in a 10 cm diameter dish) for 24 hours.
Northern blotting was carried out to determine HPV16 E7 mRNA levels in each case.

Assay [6] has as its system HPV16. Kind of assay: Treatment of patient with cervical intraepithelial neoplasia. The class given is in vivo, human. The settings on record: 25 mg orally each day for six months. The procedure: A person presents to their gynecologist for evaluation. […] On biopsy, the patient is found to have cervical intraepithelial neoplasia. HPV16 is detected. Treatment with Vioxx™ 25 mg orally each day is begun and given for six months. […] The Vioxx™ is discontinued with no recurrence of cervical intraepithelial neoplasia.

The test system of assay [7] is HPV16 upstream regulatory region (URR). Kind of assay: HPV16 upstream regulatory region luciferase reporter transfected into CaSki cells. In kind it is cell-based. Particulars: 24 hours, 0-25 μM, FIG. 1. Here is the method: HPV16 upstream regulatory region (URR) ligated to luciferase gene transfected into CaSki cells is incubated for 24 hours with ciglitazone and with 15d-PGJ2 (in each case, concentration of 0 μM, 5 μM, 10 μM, 15 μM, 20 μM and 25 μM). […] Note that cells contain endogenous activator that drives expression of E7, and ciglitazone and 15d-PGJ2 are shown to inhibit the activation.

Assay [8] relates to HPV16. Description: Treatment of patient with metastasized cervical cancer. In kind it is in vivo, human. Particulars: 50 mg orally three times a day for 12 months plus radiation therapy after hysterectomy. The procedure: A person seeks gynecologic evaluation because of pelvic pain. On pelvic examination, a cervical mass is detected. […] The patient undergoes a hysterectomy along with resection of regional lymph nodes. […] HPV16 is detected. The patient is treated with a course of radiation therapy plus indomethacin 50 mg orally three times a day for 12 months. […] The indomethacin is discontinued.

Regarding `COc1ccc2cc([C@H](C)C(=O)O)ccc2c1` [naproxen], in assay [1], the “EGF-mediated induction of HPV16 E7 (Northern blot, mRNA)” value was “inhibition”.

For the molecule `NS(=O)(=O)c1ccc(-n2nc(C(F)(F)F)cc2-c2ccc(Cl)cc2)cc1` [SC-236], the “levels of HPV16 E7 protein (Western blot)” value (shortened to “levels of HPV16 E7 protein”) in assay [2] was “dose dependent suppression”. In assay [3], the “levels of HPV16 E6 mRNA (Northern blot)” value is reported as “dose dependent suppression”.

In the case of `Oc1ccc(C=Cc2cc(O)cc(O)c2)cc1` [resveratrol], the “HPV16 E6 mRNA (Northern blot)” value in assay [3] is reported as “downregulation”. Besides, the “cutaneous warts after topical treatment” value in assay [4] is “same results”.

As for `CS(=O)(=O)c1ccc(-n2nc(C(F)(F)F)cc2-c2ccc(F)cc2)cc1` [SC-58125, 4-[5-(4-fluorophenyl)-3-(trifluoromethyl)-1H-pyrazol-1-yl]benzenemethylsulfone], the “levels of HPV16 E7 protein” value in assay [2] is recorded as “suppression”. The “levels of HPV16 E6 mRNA (Northern blot)” value in assay [3] was “suppression”.

Regarding `CC1=C(CC(=O)O)c2cc(F)ccc2/C1=C\c1ccc(S(C)(=O)=O)cc1` [sulindac sulfone], in assay [1], the “EGF-mediated induction of HPV16 E7 (Northern blot, mRNA)” value is on record as “inhibition”.

For `CN1C(C(=O)Nc2ccccn2)=C(O)c2ccccc2S1(=O)=O` [piroxicam], the “EGF-mediated induction of HPV16 E7 (Northern blot, mRNA)” value in assay [1] is “not”.

For `CS(=O)(=O)Nc1ccc([N+](=O)[O-])cc1OC1CCCCC1` [NS-398, N-[2-(cylohexyloxy)-4-nitrophenyl]-methanesulfonamide], the “levels of HPV16 E7 mRNA (Northern blot)” value in assay [5] was “dose dependent suppression”.

Regarding `CSc1ccc(/C=C2/C(C)=C(CC(=O)O)c3cc(F)ccc32)cc1` [sulindac sulfide], in assay [1], the “EGF-mediated induction of HPV16 E7 mRNA (Northern blot)” value is reported as “inhibition” and the “EGF-mediated induction of HPV16 E7 (Northern blot, mRNA)” value is “inhibition”.

Regarding `Cc1ccc(-c2cc(C(F)(F)F)nn2-c2ccc(S(N)(=O)=O)cc2)cc1` [Celebrex™, 4-[5-(4-methylphenyl)-3-(trifluoromethyl)-1H-pyrazol-1-yl]benzenesulfonamide], the “levels of HPV16 E7 protein” value in assay [2] is reported as “dose dependent suppression”. The “levels of HPV16 E6 mRNA (Northern blot)” value in assay [3] was “dose dependent suppression”.

As for `COc1ccc(-n2nc(C(F)(F)F)cc2-c2ccc(Cl)cc2)cc1` [SC-560, 5-(4-chlorophenyl)-1-(4-methoxyphenyl)-3-(trifluoromethyl)-1H-pyrazole], the “levels of HPV16 E7 protein” value in assay [2] is “suppression”. Also, in assay [6], the “cervical intraepithelial neoplasia on repeat biopsy” value is “no evidence of cervical intraepithelial neoplasia”. Further, in assay [3], the “levels of HPV16 E6 mRNA (Northern blot)” value is on record as “suppression”.

Take `CS(=O)(=O)c1ccc(C2=C(c3ccccc3)C(=O)OC2)cc1` [Vioxx™, 3-(phenyl)-4-(4-(methylsulfonyl)phenyl)-2-(5H)-furanone]: the “cervical intraepithelial neoplasia on repeat biopsy” value in assay [6] was “no further evidence of cervical intraepithelial neoplasia”.

`COc1ccc2cc([C@H](C)C(=O)O)ccc2c1` [S-naproxen]: the “EGF-mediated induction of HPV16 E7 (Northern blot, mRNA)” value in assay [1] was “not”.

Regarding `CCCCCCCOC(=O)Cc1c(C)n(C(=O)c2ccc(Cl)cc2)c2ccc(OC)cc12` [Indomethacin heptyl ester], the “levels of HPV16 E7 protein” value in assay [2] was “dose dependent suppression”. In addition, the “levels of HPV16 E6 mRNA (Northern blot)” value in assay [3] is on record as “dose dependent suppression”.

In the case of `NS(=O)(=O)c1ccc(-n2nc(C(F)(F)F)cc2-c2ccccc2)cc1` [4-[5-Phenyl-3-(trifluoromethyl)-1H-pyrazol-1-yl]benzenesulfonamide], the “levels of HPV16 E7 protein” value in assay [2] was “suppression”. The “levels of HPV16 E6 mRNA (Northern blot)” value in assay [3] was “suppression”.

In the case of `CCCCC/C=C/C=C1/C(=O)C=C[C@@H]1C/C=C\CCCC(=O)O` [15d-PGJ2, 15-deoxy-Δ12,14-prostaglandin J2], the “luciferase activity of HPV16 upstream regulatory region” value in assay [7] is reported as “dose dependent inhibition”. Besides, in assay [1], the “EGF-mediated induction of HPV16 E7 mRNA (Northern blot)” value is on record as “inhibition” and the “EGF-mediated induction of HPV16 E7 (Northern blot, mRNA)” value is recorded as “inhibition”. The “HPV16 E6 mRNA (Northern blot)” value in assay [3] was “downregulation”.

As for `COc1ccc2c(c1)c(CC(=O)O)c(C)n2C(=O)c1ccc(Cl)cc1` [indomethacin], the “repeat CAT scan, cervical cancer” value in assay [8] was “no evidence of disease”. Also, the “EGF-mediated induction of HPV16 E7 (Northern blot, mRNA)” value in assay [1] is given as “inhibition”.

As to `COc1ccc2c(c1)c(CC(=O)NCCc1ccccc1)c(C)n2C(=O)c1ccc(Cl)cc1` [N-(2-phenylethyl)-indomethacin amide], the “levels of HPV16 E7 protein” value in assay [2] is on record as “dose dependent suppression”. For the same molecule, in assay [3], the “levels of HPV16 E6 mRNA (Northern blot)” value was “dose dependent suppression”.

`O=C(O)c1ccccc1Nc1cccc(C(F)(F)F)c1` [flufenamic acid]: in assay [1], the “EGF-mediated induction of HPV16 E7 (Northern blot, mRNA)” value is given as “inhibition”.

In the case of `CS(=O)(=O)c1ccc(-c2cc(Br)sc2-c2ccc(F)cc2)cc1` [DuP-697, 5-bromo-2-(4-fluorophenyl)-3-(4-(methylsulfonyl)phenyl)thiophene], in assay [2], the “levels of HPV16 E7 protein” value is reported as “suppression”. In assay [3], the “levels of HPV16 E6 mRNA (Northern blot)” value is reported as “suppression”.

Consider `CC(=O)Oc1ccccc1C(=O)O` [aspirin], for which the “EGF-mediated induction of HPV16 E7 (Northern blot, mRNA)” value in assay [1] is reported as “not”.

Regarding `COc1cc(/C=C/C(=O)CC(=O)/C=C/c2ccc(O)c(OC)c2)ccc1O` [curcumin], the “HPV16 E6 mRNA (Northern blot)” value in assay [3] is “downregulation”.

Regarding `CC(C)Cc1ccc(C(C)C(=O)O)cc1` (stereo not shown) [ibuprofen], in assay [1], the “EGF-mediated induction of HPV16 E7 (Northern blot, mRNA)” value is on record as “not”.
